Results as given in US8772305B2, “Substituted pyridinyl-pyrimidines and their use as medicaments” (Boehringer Ingelheim International GmbH, priority 2011, dated 2014).

Target: Recombinant human Syk (amino acids 342-635), GST-Syk kinase fusion protein (Homo sapiens (Human), UniProt P43405)
Assay: In vitro Syk kinase test (Kinase Glo luminescence)
Details: read-out: SYK Enzyme IC50, GST-Syk 4 nM, ATP remaining after 60 min at room temperature
Method: The catalytic activity of the GST-Syk kinase fusion protein was determined using the Kinase Glo® Luminescence Kinase test (Promega; V6712). In this homogeneous test the amount of ATP remaining after the kinase reaction is quantified by a luciferin-luciferase reaction using luminescence. The luminescence signal obtained correlates with the amount of ATP still present and thus correlates inversely with the activity of the protein kinase.
GST-Syk was diluted to 6.0 nM in the test buffer and 10 μl of this dilution were used in the kinase test (final concentration of Syk=4 nM in a total volume of 15 μl). […]
After 60 minutes, 10 μl Kinase-Glo® solution (Promega, Cat. #V6712) (heated to room temperature) were added to each well and incubation was continued for a further 15 minutes. The plates were read in a Microplate Scintillation and Luminescence Counter (Canberra Packard GmbH). […]
The output file of the “Counter” is a text file that contains the well number and measured counts in two columns. […] Based on this values the % inherent value for the measurement of each substance concentration was calculated using an “MS-Excel—VB macro”. […] The IC50 values were calculated from the % inhibition values using “GraphPadPrism” software (Version 5) (GraphPad Software Inc.).

An IC50 of 0.0177 µM was found for `CNC(=O)c1c[nH]c2ccc(Nc3nccc(-c4ccccn4)n3)cc12` [Example 284] in this work.
